Key:
[1] = system: wildtype Wnt signaling cascade; experiment: HEK293 TOP assay (Super TopFlash luciferase reporter, Wnt-3a stimulated); type: cell-based; conditions: Homo sapiens, HEK293, 16 h, HEK293 TOP reporter cells, Wnt3a at EC50, 16 hours
Summary of the method: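 Compound series (50 μM down to 15 nM, 3.16-fold) diluted from DMSO 50-fold into CAFTY buffer, pH 7.4, 2 mM Ca^2+, 0.01% BSA, applied to Wnt-3a-stimulated HEK293 TopFlash and FOP reporter lines in parallel. Cells seeded 10000/well 24 h before; luciferase signal measured.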

[2] = system: HEK293 cells cotransfected with the FOP control vector; experiment: HEK293 FOP assay (control reporter with non-functional TCF elements); type: cell-based; conditions: Homo sapiens, 16 hours
Summary of the method: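 Compound series from 50 μM down to 15 nM, prediluted in DMSO then 50-fold into CAFTY buffer (pH 7.4, 2 mM Ca2+, 0.01% BSA), tested alongside TOP cells on a Geneticin-selected HEK293 FOP line whose TCF elements are replaced by a random sequence; recombinant human Wnt-3a applied at 2500-5 ng/ml.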

TNKS1 = target: T1, TNKS1 (Homo sapiens, UniProt O95271); experiment: TNKS1 Assay B (auto-parsylation, [3H]-NAD+ SPA); type: biochemical; conditions: 6 nM TNKS1, auto-parsylation, over night at room temperature
T1 construct: purchased BPS Bioscience, San Diego, USA 80579 (TNKS1 Histone Ribosylation Assay Kit)
T1 sequence (O95271 1-1327): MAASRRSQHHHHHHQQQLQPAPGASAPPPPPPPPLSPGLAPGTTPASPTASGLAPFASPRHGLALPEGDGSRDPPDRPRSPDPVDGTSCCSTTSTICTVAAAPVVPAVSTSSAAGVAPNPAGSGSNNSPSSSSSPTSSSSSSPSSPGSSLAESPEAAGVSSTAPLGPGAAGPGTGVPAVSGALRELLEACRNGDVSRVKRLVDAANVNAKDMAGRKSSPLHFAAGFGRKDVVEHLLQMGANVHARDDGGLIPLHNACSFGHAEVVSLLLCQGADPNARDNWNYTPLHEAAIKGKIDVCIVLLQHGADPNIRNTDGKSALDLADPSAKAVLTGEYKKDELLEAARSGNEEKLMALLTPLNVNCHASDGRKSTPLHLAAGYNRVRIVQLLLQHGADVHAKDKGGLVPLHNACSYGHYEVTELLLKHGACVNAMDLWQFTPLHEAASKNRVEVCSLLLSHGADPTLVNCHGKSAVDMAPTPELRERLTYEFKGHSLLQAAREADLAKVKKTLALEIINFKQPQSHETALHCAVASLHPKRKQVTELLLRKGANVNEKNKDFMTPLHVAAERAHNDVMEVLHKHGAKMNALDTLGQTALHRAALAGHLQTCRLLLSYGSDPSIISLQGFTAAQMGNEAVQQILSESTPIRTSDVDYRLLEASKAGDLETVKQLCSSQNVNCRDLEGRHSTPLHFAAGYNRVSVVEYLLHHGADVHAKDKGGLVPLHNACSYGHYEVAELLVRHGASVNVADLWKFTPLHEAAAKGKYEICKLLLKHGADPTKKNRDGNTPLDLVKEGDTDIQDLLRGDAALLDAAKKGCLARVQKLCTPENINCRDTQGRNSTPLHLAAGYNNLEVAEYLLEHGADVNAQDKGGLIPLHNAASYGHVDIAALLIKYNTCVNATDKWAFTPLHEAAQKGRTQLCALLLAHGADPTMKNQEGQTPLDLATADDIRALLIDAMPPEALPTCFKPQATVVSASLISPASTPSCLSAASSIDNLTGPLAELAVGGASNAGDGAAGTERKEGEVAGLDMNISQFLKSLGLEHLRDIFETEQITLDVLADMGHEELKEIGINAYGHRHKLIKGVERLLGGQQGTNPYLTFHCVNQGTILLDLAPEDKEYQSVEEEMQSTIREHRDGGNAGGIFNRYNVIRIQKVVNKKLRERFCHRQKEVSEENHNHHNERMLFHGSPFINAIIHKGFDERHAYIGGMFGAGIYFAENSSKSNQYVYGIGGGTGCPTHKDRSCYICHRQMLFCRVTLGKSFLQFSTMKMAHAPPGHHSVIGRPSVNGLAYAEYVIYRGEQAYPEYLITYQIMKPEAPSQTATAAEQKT
Experimental: The potency of selected compounds according to the invention was assessed applying a modified in vitro inhibition assay. Here, the TNKS1 catalyzed NAD^+-dependent ribosylation of the enzyme itself (auto-parsylation) was detected using [^3H]-NAD^+ as substrate and applying the scintillation proximity assay (SPA) method to detect tritium-labeled, parsylated TNKS1. The intensity of the readout signal is proportional to the incorporated [^3H]-NAD^+. Inhibition of TNKS1 leads to a decreased incorporation of [^3H]-NAD^+ and consequently to a lower readout signal intensity. The concentration of a test compound which inhibits the enzyme activity by 50% (corresponds to half of the normed readout signal intensity) is reported as IC50.
Protocol Auto-Parsylation Assay
The assay was conducted in a 96 well MTP format with the identical TNKS1 enzyme sample and NAD^+ sample as in the histone ribosylation assay with the following modifications: TNKS1 enzyme sample was diluted with a modified assay buffer (50 mM MES pH 7.0, 1 mM DTT, 0.01% Triton X-100) to a final concentration of 6 nM TNKS1 and 10×NAD^+ solution was diluted with the modified assay buffer (s. above) to a final 0.445×NAD^+ solution doped with 100 Bq/μl [^3H]-NAD^+[Catalog #NET443H050UC, Perkin Elmer, Waltham, Mass., USA]. Substrate solution (10 μl) was incubated with different test compound concentrations (2.5 ul in 10% DMSO in modified assay buffer) or control (2.5 ul 10% DMSO in modified assay buffer only) and enzyme (10 μl) over night at room temperature. Incorporated tritium was measured after addition of 50 μl SPA beads (1 mg/ml) [Catalog #RPNQ0095 20 mg/ml, Perkin Elmer, Waltham, Mass., USA; diluted 1:10 with Dulbecco's phosphate buffered saline, PBS Catalog #D8537, Sigma-Aldrich, Steinheim, Germany] and detection of the photon emission with a beta count plate reader [Wallac MicroBeta®, Perkin Elmer, Waltham, Mass., USA].

TNKS2 = target: T2, TNKS2 (Homo sapiens, UniProt Q9H2K2); experiment: TNKS2 Assay B (auto-parsylation, [3H]-NAD+ SPA); type: biochemical; conditions: 6 nM TNKS2, auto-parsylation, over night at room temperature
T2 construct: purchased BPS Bioscience, San Diego, USA 80572 (TNKS2 Histone Ribosylation Assay Kit)
T2 sequence (Q9H2K2 1-1166): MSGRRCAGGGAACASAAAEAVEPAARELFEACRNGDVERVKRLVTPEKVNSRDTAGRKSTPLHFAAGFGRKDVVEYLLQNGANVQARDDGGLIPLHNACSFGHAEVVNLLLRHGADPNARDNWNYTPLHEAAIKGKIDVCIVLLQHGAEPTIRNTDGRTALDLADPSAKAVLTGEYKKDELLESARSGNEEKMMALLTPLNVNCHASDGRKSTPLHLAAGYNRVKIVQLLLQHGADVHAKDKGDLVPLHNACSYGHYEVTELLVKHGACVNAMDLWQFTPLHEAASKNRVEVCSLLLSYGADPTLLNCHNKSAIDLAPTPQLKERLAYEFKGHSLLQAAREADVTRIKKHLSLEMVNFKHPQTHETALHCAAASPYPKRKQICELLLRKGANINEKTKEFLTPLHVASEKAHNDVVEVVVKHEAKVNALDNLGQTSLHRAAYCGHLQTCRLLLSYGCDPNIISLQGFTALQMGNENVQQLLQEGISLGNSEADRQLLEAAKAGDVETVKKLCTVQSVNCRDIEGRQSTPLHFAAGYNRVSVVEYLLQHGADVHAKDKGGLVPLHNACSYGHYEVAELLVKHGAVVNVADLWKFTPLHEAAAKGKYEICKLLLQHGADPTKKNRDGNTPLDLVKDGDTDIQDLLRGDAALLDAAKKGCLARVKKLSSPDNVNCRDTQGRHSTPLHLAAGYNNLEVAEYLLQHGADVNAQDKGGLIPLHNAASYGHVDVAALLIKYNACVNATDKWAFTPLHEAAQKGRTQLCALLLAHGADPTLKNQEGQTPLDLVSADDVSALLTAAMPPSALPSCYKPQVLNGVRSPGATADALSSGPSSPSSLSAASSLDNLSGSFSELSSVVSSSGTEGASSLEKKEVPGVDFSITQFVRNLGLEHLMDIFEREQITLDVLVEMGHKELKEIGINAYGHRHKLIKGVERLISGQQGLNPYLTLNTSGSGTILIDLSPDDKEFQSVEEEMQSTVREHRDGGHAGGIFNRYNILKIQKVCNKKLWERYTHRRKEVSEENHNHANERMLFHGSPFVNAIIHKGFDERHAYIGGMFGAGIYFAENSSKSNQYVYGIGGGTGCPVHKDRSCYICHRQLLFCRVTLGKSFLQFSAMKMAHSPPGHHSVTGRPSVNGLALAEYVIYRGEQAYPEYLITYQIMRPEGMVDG

IC50 [1] [µM]	IC50 (TNKS1) [µM]	IC50 (TNKS2) [µM]	Structure (SMILES)	IC50 [2] [µM]
3.2	> 10	–	O=C(N[C@H]1CC[C@H](C(=O)Nc2cc(N3CCOCC3)ccc2Cl)CC1)c1[nH]cnc1C(=O)N1CC(F)(F)C1 [Example 92, N-(trans-4-{[2-chloro-5-(morpholin-4-yl)phenyl]carbamoyl}cyclohexyl)-4-[(3,3-difluoroazetidin-1-yl)carbonyl]-1H-imidazole-5-carboxamide]	21
0.0028	–	0.071	O=C(N[C@H]1CC[C@@]2(CCN(c3ccccc3Cl)C2=O)CC1)c1c[nH]c2cccnc12 [Example 274, N-[(trans)-2-(2-chlorophenyl)-1-oxo-2-azaspiro[4.5]dec-8-yl]-1H-pyrrolo[3,2-b]pyridine-3-carboxamide]	38
0.0054	–	0.11	Cc1cc(N2CCC[C@]3(CC[C@@H](NC(=O)c4[nH]cnc4C(=O)NC4CC4)CC3)C2=O)c(Cl)cc1F [Example 308, N^5-[(trans)-2-(2-chloro-4-fluoro-5-methylphenyl)-1-oxo-2-azaspiro[5.5]undec-9-yl]-N^4-cyclopropyl-1H-imidazole-4,5-dicarboxamide]	11

Reference: patent US20180148418A1, “AMIDO-SUBSTITUTED CYCLOHEXANE DERIVATIVES” (Bayer Pharma Aktiengesellschaft, priority 2015, published 2018)
